# Measurements from publication PMC9884089 (Journal of Medicinal Chemistry, 2023).
# Target: T1, TNKS2 (Homo sapiens, UniProt Q9H2K2)
# T1 sequence (Q9H2K2 1-1166): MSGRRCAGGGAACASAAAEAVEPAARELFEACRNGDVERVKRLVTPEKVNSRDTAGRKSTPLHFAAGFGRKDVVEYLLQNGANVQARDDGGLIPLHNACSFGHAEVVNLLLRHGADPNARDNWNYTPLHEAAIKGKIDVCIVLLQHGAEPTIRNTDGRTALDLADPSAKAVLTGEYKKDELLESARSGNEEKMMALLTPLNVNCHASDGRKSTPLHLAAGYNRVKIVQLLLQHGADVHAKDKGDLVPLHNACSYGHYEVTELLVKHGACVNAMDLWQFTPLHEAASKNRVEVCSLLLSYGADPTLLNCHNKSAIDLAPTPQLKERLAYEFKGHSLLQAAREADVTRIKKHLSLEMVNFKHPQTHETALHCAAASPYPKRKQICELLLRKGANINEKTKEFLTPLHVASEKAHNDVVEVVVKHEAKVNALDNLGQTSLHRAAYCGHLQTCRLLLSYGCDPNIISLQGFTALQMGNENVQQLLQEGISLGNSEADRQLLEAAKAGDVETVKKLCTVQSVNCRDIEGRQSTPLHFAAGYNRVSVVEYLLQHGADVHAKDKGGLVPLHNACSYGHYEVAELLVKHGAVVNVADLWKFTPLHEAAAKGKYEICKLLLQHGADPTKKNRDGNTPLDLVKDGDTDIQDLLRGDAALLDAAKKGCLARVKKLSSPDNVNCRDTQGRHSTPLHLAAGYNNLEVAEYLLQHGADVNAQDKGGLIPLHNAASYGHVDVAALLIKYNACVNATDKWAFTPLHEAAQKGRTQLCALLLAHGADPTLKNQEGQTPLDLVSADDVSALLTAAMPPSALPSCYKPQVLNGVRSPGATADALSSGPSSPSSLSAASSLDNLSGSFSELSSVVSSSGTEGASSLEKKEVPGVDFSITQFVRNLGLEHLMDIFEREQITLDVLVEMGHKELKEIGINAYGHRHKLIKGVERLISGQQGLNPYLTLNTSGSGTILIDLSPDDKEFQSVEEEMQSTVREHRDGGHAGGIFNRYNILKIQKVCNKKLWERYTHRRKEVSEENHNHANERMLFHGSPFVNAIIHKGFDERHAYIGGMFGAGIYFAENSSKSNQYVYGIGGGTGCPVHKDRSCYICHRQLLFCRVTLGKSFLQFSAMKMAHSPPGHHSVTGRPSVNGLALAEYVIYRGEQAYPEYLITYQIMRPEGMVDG
# Assay: biochemical
# Settings: not given
# Protocol: The proteins used in Tables 1–3 were produced as described earlier. Dockerin constructs to allow enhanced activity assays for mono-ARTs (Table 4) were produced in Escherichia coli with an N-terminal maltose binding protein (MBP) and a C-terminal dockerin domain from Hungateiclostridium thermocellum Cel48s as described recently.[47]
# Inhibition experiments were performed using a homogenous assay measuring NAD+ consumption.[80]−[82] Reactions were carried out in quadruplicate, and IC50 curves were fitted using sigmoidal dose response curve (four variables) in GraphPad Prism version 8.02. […] Assay conditions for PARP2, TNKS2, PARP10, and PARP15 (Tables 1–3) were recently reported.[44] The conditions for the proximity-enhanced mono-ART assays (Table 4) were also reported recently.[47] PARP6 (400 nM) inhibition was measured using the standard buffer (50 mM sodium phosphate pH 7.0) for the enhanced activity assay using 500 nM NAD^+ and 18 h incubation in r.t..
row,Structure (SMILES),IC50 [µM]
1,"Cc1ccc2c(c1)sc1nnc(/N=C\c3ccc(Cl)cc3)n12 [Compound 24, N-[(1Z)-(4-Chlorophenyl)methylene]-7-methyl[1,2,4]triazolo[3,4-b][1,3]benzothiazol-3-amine]",> 100

# Same assay, conditions: n = 3
row,Structure (SMILES),TNKS2 pIC50 ± SEM
1,"Cc1ccc2sc3nncn3c2c1 [Compound 3, 6-Methyl[1,2,4]triazolo[3,4-b][1,3]benzothiazole]",6.02 ± 0.13

# Same assay, conditions: read-out: TNKS2 IC50; > = less than 50% inhibition at highest concentration
row,Structure (SMILES),IC50 [µM]
1,Cc1ccc2c(c1)sc1nncn12 [Compound 1],5.3
2,Clc1ccc2c(c1)sc1nncn12 [Compound 7],10
3,"COc1cccc2sc3nncn3c12 [Compound 13, 5-Methoxy[1,2,4]triazolo[3,4-b][1,3]benzothiazole]",1
4,"Cc1ccc(F)c2c1sc1nncn12 [Compound 9, 5-Fluoro-8-methyl[1,2,4]triazolo[3,4-b][1,3]benzothiazole]",5.4
5,Cc1cc(C)c2c(c1)sc1nncn12 [Compound 8],1.2
6,"Cc1ccc2sc3nncn3c2c1 [Compound 3, 6-Methyl[1,2,4]triazolo[3,4-b][1,3]benzothiazole]",0.95
7,"CCc1ccc2c(c1)sc1nncn12 [Compound 5, 7-Ethyl[1,2,4]triazolo[3,4-b][1,3]benzothiazole]",5.3
8,"Cc1cccc2c1sc1nncn12 [Compound 4, 8-Methyl[1,2,4]triazolo[3,4-b][1,3]benzothiazole]",3.8
9,"COc1ccc2sc3nncn3c2c1 [Compound 10, 6-Methoxy[1,2,4]triazolo[3,4-b][1,3]benzothiazole]",1

# Results, then the compound that gave them:
row,IC50 [µM],Structure (SMILES)
1,> 100,"COc1ccc(OC)c2c1sc1nnc(NC(C)=O)n12 [Compound 31, N-(5,8-Dimethoxy[1,2,4]triazolo[3,4-b][1,3]benzothiazol-3-yl)acetamide]"
2,5.5,COc1ccc2c(c1)sc1nncn12 [Compound 11]
3,> 100,Cc1ccc2c(c1)sc1nnc(O)n12 [Compound 19]
4,24,"COc1cccc2c1sc1nncn12 [Compound 12, 8-Methoxy[1,2,4]triazolo[3,4-b][1,3]benzothiazole]"
5,7.6,"COc1cc(OC)c2sc3nncn3c2c1 [Compound 15, 6,8-Dimethoxy[1,2,4]triazolo[3,4-b][1,3]benzothiazole]"
6,66,"COc1ccc(OC)c2c1sc1nnc(S)n12 [Compound 26, 5,8-Dimethoxy[1,2,4]triazolo[3,4-b][1,3]benzothiazole-3(2H)-thione]"
7,> 100,"COc1ccc(OC)c2c1sc1nnc(NC(=O)C(C)(C)C)n12 [Compound 30, N-(5,8-Dimethoxy[1,2,4]triazolo[3,4-b][1,3]benzothiazol-3-yl)-2,2-dimethylpropanamide]"
8,> 100,"Cc1ccc2c(c1)sc1nnc(NCc3ccc(Cl)cc3)n12 [Compound 25, N-(4-Chlorobenzyl)-7-methyl[1,2,4]triazolo[3,4-b][1,3]benzothiazol-3-amine]"
9,> 100,"CSc1nnc2sc3cc(C)ccc3n12 [Compound 22, 7-Methyl-3-(methylthio)[1,2,4]triazolo[3,4-b][1,3]benzothiazole]"
10,17,"Oc1cccc2c1sc1nncn12 [Compound 17, [1,2,4]Triazolo[3,4-b][1,3]benzothiazol-8-ol]"
11,4,"COc1ccc(OC)c2c1sc1nncn12 [Compound 14, 5,8-Dimethoxy[1,2,4]triazolo[3,4-b][1,3]benzothiazole]"
12,> 100,"Cc1ccc2c(c1)sc1nnc(SCc3ccc(Cl)cc3)n12 [Compound 23, 3-[(4-Chlorobenzyl)thio]-7-methyl[1,2,4]triazolo[3,4-b][1,3]benzothiazole]"

# Target: T2, PARP15 (Homo sapiens, UniProt Q460N3)
# T2 construct: made in house
# T2 sequence (Q460N3 1-678): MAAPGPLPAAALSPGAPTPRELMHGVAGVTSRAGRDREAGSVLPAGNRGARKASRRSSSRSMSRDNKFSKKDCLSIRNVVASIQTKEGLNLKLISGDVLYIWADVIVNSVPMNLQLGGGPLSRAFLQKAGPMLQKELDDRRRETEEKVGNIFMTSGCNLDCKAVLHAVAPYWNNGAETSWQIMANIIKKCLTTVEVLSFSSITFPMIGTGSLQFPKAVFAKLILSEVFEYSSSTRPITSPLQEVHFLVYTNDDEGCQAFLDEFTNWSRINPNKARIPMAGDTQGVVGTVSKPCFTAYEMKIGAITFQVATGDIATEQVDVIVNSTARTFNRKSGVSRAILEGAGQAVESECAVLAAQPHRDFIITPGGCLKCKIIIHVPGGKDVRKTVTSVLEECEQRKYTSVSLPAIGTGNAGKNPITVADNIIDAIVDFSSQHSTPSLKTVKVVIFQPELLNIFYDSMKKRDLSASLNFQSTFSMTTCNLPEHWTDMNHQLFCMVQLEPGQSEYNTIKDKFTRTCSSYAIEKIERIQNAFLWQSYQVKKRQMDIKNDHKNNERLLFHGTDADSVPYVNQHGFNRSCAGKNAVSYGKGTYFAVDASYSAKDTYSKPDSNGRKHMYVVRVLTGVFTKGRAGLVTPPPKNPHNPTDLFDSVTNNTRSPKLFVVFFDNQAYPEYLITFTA
# Assay: biochemical
# Format: biochemical
# Settings: standard assay (Tables 1-3); * value limited by the protein concentration used; > less than 50% inhibition, ≫ no inhibition at the concentration; read-out: PARP15 IC50
row,IC50 [µM],Structure (SMILES)
1,> 10,Cc1ccc2c(c1)sc1nnc(O)n12 [Compound 19]

# Test system: not listed separately
# Assay: PAMPA, blood brain barrier (BBB) permeability
# Format: in vitro ADME
# Settings: brain polar lipid, pH 7.4, 5 h
# Protocol: Each “donor solution” was prepared from a solution of the appropriate compound (DMSO, 1 mM) diluted with phosphate buffer (pH 7.4, 0.025 M) up to a final concentration of 500 μM. […] Donor solution (150 μL) was added to each well of the filter plate and to each well of the acceptor plate was added 300 μL of solution (50% DMSO in phosphate buffer). The sandwich plate was assembled and incubated for 5 h at r.t. After the incubation time, the plates were separated, and the samples were taken from both the donor and acceptor wells, and the amount of compound was measured by UV/LC–MS. All compounds were tested in three independent experiments. […] Drug concentration is estimated by using the peak area integration. Membrane retentions (%) were calculated according to the following equation [drawing 2] where r is the ratio between drug concentration in the acceptor and equilibrium concentration and D, A, and Eq represent drug concentration in the donor, acceptor, and equilibrium solution, respectively.
row,"Papp at 5 h, 500 μM [×10⁻⁶ cm/s]",Structure (SMILES)
1,0.016,"O=C(c1cc(Cc2n[nH]c(=O)c3ccccc23)ccc1F)N1CCN(C(=O)C2CC2)CC1 [olaparib, reference compound]"

# Target: T3, PARP2 (Homo sapiens, UniProt Q9UGN5)
# T3 construct: made in house
# T3 sequence (Q9UGN5 whole entry): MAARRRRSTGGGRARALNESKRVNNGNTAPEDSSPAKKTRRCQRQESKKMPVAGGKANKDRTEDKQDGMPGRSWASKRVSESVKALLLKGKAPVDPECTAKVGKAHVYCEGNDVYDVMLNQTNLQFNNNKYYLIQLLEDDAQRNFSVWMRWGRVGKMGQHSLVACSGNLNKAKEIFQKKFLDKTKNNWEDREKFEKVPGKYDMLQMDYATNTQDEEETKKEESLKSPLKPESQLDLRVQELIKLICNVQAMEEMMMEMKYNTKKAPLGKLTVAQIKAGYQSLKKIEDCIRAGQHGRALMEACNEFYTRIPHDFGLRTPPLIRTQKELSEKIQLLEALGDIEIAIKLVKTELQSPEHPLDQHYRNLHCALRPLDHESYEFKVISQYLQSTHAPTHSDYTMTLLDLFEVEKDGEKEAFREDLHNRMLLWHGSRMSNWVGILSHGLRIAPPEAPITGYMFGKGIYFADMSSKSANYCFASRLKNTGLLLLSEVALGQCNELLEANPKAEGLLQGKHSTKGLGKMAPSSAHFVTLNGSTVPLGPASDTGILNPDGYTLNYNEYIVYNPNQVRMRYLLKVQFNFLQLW
# Assay: biochemical
# Format: biochemical
# Settings: not given
row,IC50 [µM],Structure (SMILES)
1,53,"COc1ccc(OC)c2c1sc1nnc(NC(=O)C(C)(C)C)n12 [Compound 30, N-(5,8-Dimethoxy[1,2,4]triazolo[3,4-b][1,3]benzothiazol-3-yl)-2,2-dimethylpropanamide]"

# Same assay, conditions: > = less than 50% inhibition at highest concentration; ≫ = no inhibition; read-out: PARP2 IC50
row,Structure (SMILES),IC50 [µM]
1,Cc1ccc2c(c1)sc1nncn12 [Compound 1],4
2,Clc1ccc2c(c1)sc1nncn12 [Compound 7],2.4
3,Cc1cc(C)c2c(c1)sc1nncn12 [Compound 8],1.3
4,"Cc1ccc2sc3nncn3c2c1 [Compound 3, 6-Methyl[1,2,4]triazolo[3,4-b][1,3]benzothiazole]",1.5
5,"CCc1ccc2c(c1)sc1nncn12 [Compound 5, 7-Ethyl[1,2,4]triazolo[3,4-b][1,3]benzothiazole]",3.9
6,"Cc1cccc2c1sc1nncn12 [Compound 4, 8-Methyl[1,2,4]triazolo[3,4-b][1,3]benzothiazole]",8.3
7,"COc1ccc2sc3nncn3c2c1 [Compound 10, 6-Methoxy[1,2,4]triazolo[3,4-b][1,3]benzothiazole]",4.7

# Other lines, results leading:
row,IC50 [µM],Structure (SMILES)
1,97,"COc1ccc(OC)c2c1sc1nnc(NC(C)=O)n12 [Compound 31, N-(5,8-Dimethoxy[1,2,4]triazolo[3,4-b][1,3]benzothiazol-3-yl)acetamide]"
2,8.8,COc1ccc2c(c1)sc1nncn12 [Compound 11]
3,> 100,Cc1ccc2c(c1)sc1nnc(O)n12 [Compound 19]
4,> 10,"COc1cccc2c1sc1nncn12 [Compound 12, 8-Methoxy[1,2,4]triazolo[3,4-b][1,3]benzothiazole]"
5,20,"COc1cc(OC)c2sc3nncn3c2c1 [Compound 15, 6,8-Dimethoxy[1,2,4]triazolo[3,4-b][1,3]benzothiazole]"
6,19,"COc1ccc(OC)c2c1sc1nnc(S)n12 [Compound 26, 5,8-Dimethoxy[1,2,4]triazolo[3,4-b][1,3]benzothiazole-3(2H)-thione]"
7,70,"Cc1ccc2c(c1)sc1nnc(NCc3ccc(Cl)cc3)n12 [Compound 25, N-(4-Chlorobenzyl)-7-methyl[1,2,4]triazolo[3,4-b][1,3]benzothiazol-3-amine]"
8,12,"CSc1nnc2sc3cc(C)ccc3n12 [Compound 22, 7-Methyl-3-(methylthio)[1,2,4]triazolo[3,4-b][1,3]benzothiazole]"
9,29,"Oc1cccc2c1sc1nncn12 [Compound 17, [1,2,4]Triazolo[3,4-b][1,3]benzothiazol-8-ol]"
10,9.2,"COc1ccc(OC)c2c1sc1nncn12 [Compound 14, 5,8-Dimethoxy[1,2,4]triazolo[3,4-b][1,3]benzothiazole]"
11,> 100,"Cc1ccc2c(c1)sc1nnc(SCc3ccc(Cl)cc3)n12 [Compound 23, 3-[(4-Chlorobenzyl)thio]-7-methyl[1,2,4]triazolo[3,4-b][1,3]benzothiazole]"

# Same assay, conditions: read-out: PARP2 IC50
row,Structure (SMILES),IC50 [µM]
1,"Cc1ccc2c(c1)sc1nnc(/N=C\c3ccc(Cl)cc3)n12 [Compound 24, N-[(1Z)-(4-Chlorophenyl)methylene]-7-methyl[1,2,4]triazolo[3,4-b][1,3]benzothiazol-3-amine]",2.9
